From ChEMBL document CHEMBL1201862, “PubChem BioAssay data set” (2004)
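Values below derive from 48-hour exposures of cells grown in 96-well plates, with endpoints linearly interpolated between the two concentrations bracketing the appropriate inhibition level. GI50 = concentration required for 50% inhibition of growth.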 Activity calls are given as the source filed them. Cut-off read from the data, not from the text of the source: active = GI50 up to about 1.1 µM and inactive = higher.

How the values were obtained:
Experiment in all cases: NCI-60 cell line screen, 48 h
[1] = system: SF-268
[2] = system: HT-29
[3] = system: UACC-62
[4] = system: RPMI-8226
[5] = system: NCI-H460
[6] = system: SK-OV-3
[7] = system: OVCAR-5
[8] = system: MOLT-4
[9] = system: SK-MEL-5
[10] = system: M14
[11] = system: NCI-H522
[12] = system: SN12C
[13] = system: SF-295
[14] = system: SNB-75
[15] = system: BT-549
[16] = system: IGROV-1
[17] = system: MDA-MB-435
[18] = system: UACC-257
[19] = system: LOX IMVI
[20] = system: KM12
[21] = system: HCT-15
[22] = system: K562
[23] = system: SF-539
[24] = system: HCT-116
[25] = system: SNB-19
[26] = system: PC-3
[27] = system: DU-145
[28] = system: COLO 205
[29] = system: OVCAR-8
[30] = system: OVCAR-3
[31] = system: NCI-H226
[32] = system: EKVX
[33] = system: SK-MEL-28
[34] = system: TK-10
[35] = system: HCC 2998
[36] = system: CCRF-CEM
[37] = system: MCF7
[38] = system: SR
[39] = system: Malme-3M
[40] = system: SK-MEL-2
[41] = system: A549
[42] = system: NCI/ADR-RES
[43] = system: CAKI-1
[44] = system: NCI-H23
[45] = system: MDA-N
[46] = system: T47D
[47] = system: 786-0
[48] = system: MDA-MB-231
[49] = system: HL-60
[50] = system: HOP-62
[51] = system: SW-620
[52] = system: Hs-578T
[53] = system: A498
[54] = system: ACHN
[55] = system: OVCAR-4
[56] = system: RXF 393
[57] = system: U-251
[58] = system: UO-31

For CCC1=NC(C(F)(F)F)(C(F)(F)F)N=C(/N=C(/N)N(C)C(C(C)C)P(=O)(OC(C)C)OC(C)C)O1 (stereo not drawn), which GI50 [1] is on record?
The GI50 was > 100 µM (inactive).

And the GI50 [2]?
The GI50 was > 100 µM (inactive).

What about the GI50 [3] of the same molecule?
Its GI50 is > 100 µM (inactive).

And the GI50 [4]?
Its GI50 is > 100 µM (inactive).

What about the GI50 [5] of the same molecule?
Its GI50 is > 100 µM (inactive).

What about the GI50 [6] of the same molecule?
Its GI50 is > 100 µM (inactive).

What about the GI50 [7] of the same molecule?
The GI50 was > 100 µM (inactive).

And the GI50 [8]?
Its GI50 is > 100 µM (inactive).

And the GI50 [9]?
The GI50 was > 100 µM (inactive).

And the GI50 [10]?
Its GI50 is > 100 µM (inactive).

And the GI50 [11]?
Its GI50 is > 100 µM (inactive).

And the GI50 [12]?
Its GI50 is > 100 µM (inactive).

What about the GI50 [13] of the same molecule?
Its GI50 is > 100 µM (inactive).

And the GI50 [14]?
The GI50 was > 100 µM (inactive).

What about the GI50 [15] of the same molecule?
Its GI50 is > 100 µM (inactive).

What about the GI50 [16] of the same molecule?
The GI50 was > 100 µM (inactive).

What about the GI50 [17] of the same molecule?
The GI50 was > 100 µM (inactive).

And the GI50 [18]?
Its GI50 is > 100 µM (inactive).

What about the GI50 [19] of the same molecule?
Its GI50 is > 100 µM (inactive).

What about the GI50 [20] of the same molecule?
The GI50 was > 100 µM (inactive).

What about the GI50 [21] of the same molecule?
The GI50 was greater than 100 µM.

What about the GI50 [22] of the same molecule?
The GI50 was > 100 µM (inactive).

What about the GI50 [23] of the same molecule?
The GI50 was > 100 µM (inactive).

What about the GI50 [24] of the same molecule?
Its GI50 is > 100 µM (inactive).

And the GI50 [25]?
Its GI50 is > 100 µM (inactive).

And the GI50 [26]?
Its GI50 is > 100 µM (inactive).

What about the GI50 [27] of the same molecule?
The GI50 was > 100 µM (inactive).

And the GI50 [28]?
The GI50 was > 100 µM (inactive).

What about the GI50 [29] of the same molecule?
Its GI50 is > 100 µM (inactive).

What about the GI50 [30] of the same molecule?
The GI50 was > 100 µM (inactive).

And the GI50 [31]?
Its GI50 is > 100 µM (inactive).

What about the GI50 [32] of the same molecule?
The GI50 was > 100 µM (inactive).

What about the GI50 [33] of the same molecule?
Its GI50 is > 100 µM (inactive).

And the GI50 [34]?
The GI50 was > 100 µM (inactive).

And the GI50 [35]?
The GI50 was > 100 µM (inactive).

What about the GI50 [36] of the same molecule?
Its GI50 is > 100 µM (inactive).

What about the GI50 [37] of the same molecule?
Its GI50 is > 100 µM (inactive).

What about the GI50 [38] of the same molecule?
Its GI50 is > 100 µM (inactive).

And the GI50 [39]?
The GI50 was > 100 µM (inactive).

And the GI50 [40]?
Its GI50 is > 100 µM (inactive).

What about the GI50 [41] of the same molecule?
The GI50 was > 100 µM (inactive).

And the GI50 [42]?
Its GI50 is > 100 µM (inactive).

And the GI50 [43]?
The GI50 was > 100 µM (inactive).

What about the GI50 [44] of the same molecule?
Its GI50 is > 100 µM (inactive).

What about the GI50 [45] of the same molecule?
Its GI50 is > 100 µM (inactive).

What about the GI50 [46] of the same molecule?
The GI50 was > 100 µM (inactive).

What about the GI50 [47] of the same molecule?
The GI50 was > 100 µM (inactive).

And the GI50 [48]?
Its GI50 is > 100 µM (inactive).

What about the GI50 [49] of the same molecule?
Its GI50 is > 100 µM (inactive).

What about the GI50 [50] of the same molecule?
The GI50 was > 100 µM (inactive).

And the GI50 [51]?
The GI50 was > 100 µM (inactive).

What about the GI50 [52] of the same molecule?
The GI50 was > 100 µM (inactive).

What about the GI50 [53] of the same molecule?
The GI50 was > 100 µM (inactive).

What about the GI50 [54] of the same molecule?
The GI50 was > 100 µM (inactive).

What about the GI50 [55] of the same molecule?
Its GI50 is > 100 µM (inactive).

And the GI50 [56]?
The GI50 was > 100 µM (inactive).

What about the GI50 [57] of the same molecule?
Its GI50 is > 100 µM (inactive).

What about the GI50 [58] of the same molecule?
The GI50 was > 100 µM (inactive).
